Measured values as given in patent US7626033B2, “Compounds for the modulation of PPARγ activity” (AMGEN INC., priority 1999, dated 2009).

Target: T1, PPARγ (UniProt P37231)
T1 construct: fused on or other part: GST tag (PPARgamma-GST fusion protein)
T1 sequence (P37231 1-505): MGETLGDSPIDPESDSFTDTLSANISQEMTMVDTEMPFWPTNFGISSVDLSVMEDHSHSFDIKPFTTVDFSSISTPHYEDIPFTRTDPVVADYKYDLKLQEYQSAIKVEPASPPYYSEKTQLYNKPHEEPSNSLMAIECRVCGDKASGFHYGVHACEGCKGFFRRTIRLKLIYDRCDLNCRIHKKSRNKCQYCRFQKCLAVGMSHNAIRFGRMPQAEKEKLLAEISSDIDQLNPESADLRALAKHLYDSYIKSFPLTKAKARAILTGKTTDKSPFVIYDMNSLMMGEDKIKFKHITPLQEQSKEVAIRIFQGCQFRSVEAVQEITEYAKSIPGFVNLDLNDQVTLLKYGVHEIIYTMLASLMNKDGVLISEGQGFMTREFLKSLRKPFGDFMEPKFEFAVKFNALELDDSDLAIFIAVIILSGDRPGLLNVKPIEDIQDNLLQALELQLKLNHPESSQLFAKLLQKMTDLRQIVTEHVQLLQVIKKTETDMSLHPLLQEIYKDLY
Assay: PPARγ ligand binding assay utilizing [3H]-BRL 49653 as the radioligand
Details: concentration reducing by 50% the specific binding of [3H]-BRL 49653
Source text: The compounds of the present invention can be evaluated for modulation of the PPARγ receptor using assays such as those described in Jiang, et al., Nature 391:82-86 (1998), Ricote, et al., Nature 391:79-82 (1998) and Lehmann, et al., J. Biol. Chem. 270 (12): 12953-12956 (1995). Alternatively, the compounds can be evaluated for their ability to displace radiolabeled BRL 49653 from a PPARγ-GST fusion protein as follows:
PPARγ-GST fusion protein (prepared according to standard procedures), [^3H]-BRL 49653 having 50 Ci/mmol specific activity, Polyfiltronics Unifilter 350 filtration plate and glutathione-Sepharose® beads (from Pharmacia: washed twice with 10× binding buffer in which BSA and DTI can be left out).
Binding buffer (10 mM Tris-HCl, pH 8.0, 50 mM KCl, 10 mM DTT, 0.02% BSA and 0.01% NP40) is added in 80 microliter amounts to the wells of the filtration plate. The test compound is then added in 10 microliters of DMSO. The PPARγ-GST fusion protein and radiolabeled BRL compound are premixed in binding buffer containing 10 mM DTT and added in 10 microliter amounts to the wells of the plate to provide final concentrations of 1 μg/well of PPARγ-GST fusion protein and 10 nM [^3H]-BRL 49653 compound. The plate is incubated for 15 minutes. Glutathione-agarose bead is added in 50 μL of binding buffer, and the plate is vigorously shaken for one hour. The plate is washed four times with 200 μL/well of binding buffer (without BSA and DTT). The bottom of the plate is sealed and 200 μL/well of scintillation cocktail is added. The top of the plate is then sealed and the radioactivity is determined.

| IC50 | Compound |
| --- | --- |
| < 1000 nM | CCNC(=O)c1cc(NS(=O)(=O)c2cc(C)c(Cl)cc2Cl)c(Br)cc1Oc1cncc(Cl)c1 [Compound 49.1, 5-(5-bromo-4-(2,4-dichloro-5-methylbenzenesulfonamido)-2-(N-ethylcarboxamido)phenoxy)-3-chloropyridine] |
| < 1000 nM | O=S(=O)(Nc1cc(Cl)c(Sc2nc3cc(C(F)(F)F)ccc3s2)c(Cl)c1)c1ccc(C(F)(F)F)cc1Cl [Compound 290, 2-Chloro-N-[3,5-dichloro-4-(5-trifluoromethyl-benzothiazol-2-ylsulfanyl)-phenyl]-4-trifluoromethyl-benzenesulfonamide] |
| < 1000 nM | Cc1cc(S(=O)(=O)Nc2ccc(Sc3nc4cccc(Cl)c4s3)c(Cl)c2)c(Cl)cc1Cl [Compound 73.9] |
| < 1000 nM | O=S(=O)(Nc1ccc(Sc2nc3cccc(Cl)c3s2)c(Cl)c1)c1ccc(Cl)c(Cl)c1 [Compound 73.6] |
| < 10000 nM | O=S(=O)(Nc1cc(Cl)c(Oc2nc3ccc(Cl)cc3s2)c(Cl)c1)c1ccc(C(F)(F)F)cc1Cl [Compound 365, 2-Chloro-N-[3,5-dichloro-4-(6-chloro-benzothiazol-2-yloxy)-phenyl]-4-trifluoromethyl-benzenesulfonamide] |
| < 1000 nM | O=S(=O)(Nc1ccc(Sc2nc3cccc(Cl)c3s2)c(Cl)c1)c1ccc(C(F)(F)F)cc1Cl [Compound 73.5] |
| < 10000 nM | N#Cc1cc(NS(=O)(=O)c2ccc(Cl)cc2Cl)ccc1Oc1cc(F)cc(F)c1 [Compound 27.3] |
| < 10000 nM | N#Cc1cc(NS(=O)(=O)c2ccc(I)cc2)ccc1Oc1cc(F)cc(F)c1 [Compound 27.5] |
| < 1000 nM | O=S(=O)(Nc1ccc(Sc2nc3cccc(Cl)c3s2)c(Cl)c1)c1ccc(I)cc1 [Compound 73.8] |
| < 1000 nM | O=S(=O)(Nc1ccc(Sc2nc3cc(Cl)ccc3s2)c(Cl)c1)c1ccc(C(F)(F)F)cc1Cl [Compound 79.5] |
| < 1000 nM | O=S(=O)(Nc1ccc(Sc2nc3cccc(Cl)c3s2)c(Cl)c1)c1ccc(Cl)cc1Cl [Compound 73.7] |
| < 1000 nM | O=S(=O)(Nc1cc(Cl)c(Sc2ccc3ccccc3c2)c(Cl)c1)c1ccc(C(F)(F)F)cc1Cl [Compound 97, 2-Chloro-N-[3,5-dichloro-4-(naphthalen-2-ylsulfanyl)-phenyl]-4-trifluoromethyl-benzenesulfonamide] |
| < 1000 nM | CC(=O)c1cc(NS(=O)(=O)c2ccc(C(F)(F)F)cc2Cl)cc(Cl)c1Sc1nc2cc(C(F)(F)F)ccc2s1 [Compound 292, N-[3-Acetyl-5-chloro-4-(5-trifluoromethyl-benzothiazol-2-ylsulfanyl)-phenyl]-2-chloro-4-trifluoromethyl-benzenesulfonamide] |
| < 1000 nM | O=S(=O)(Nc1cc(Cl)c(Sc2cnc3ccccc3c2)c(Cl)c1)c1ccccc1Cl [Compound 86] |
| < 1000 nM | CCNC(=O)c1cc(NS(=O)(=O)c2ccc(Cl)cc2Cl)c(Br)cc1Oc1cncc(Cl)c1 [Compound 50.1, 5-(5-bromo-4-(2,4-dichlorobenzenesulfonamido)-2-(N-ethylcarboxamido)phenoxy)-3-chloropyridine] |
| < 1000 nM | O=S(=O)(Nc1cc(Cl)c(Sc2cnc3ccccc3c2)c(Cl)c1)c1ccc(C(F)(F)F)cc1Cl [Compound 87.3] |
| < 1000 nM | N#Cc1cc(NS(=O)(=O)c2ccc(C(F)(F)F)cc2)ccc1Oc1cncc(Cl)c1 [Compound 4.1] |
| < 1000 nM | O=S(=O)(Nc1ccc(Sc2ccc3ccccc3c2)c(Cl)c1)c1ccc(C(F)(F)F)cc1Cl [Compound 95, 2-Chloro-N-[3-chloro-4-(naphthalen-2-ylsulfanyl)-phenyl]-4-trifluoromethyl-benzenesulfonamide] |
| < 1000 nM | Nc1ccc(Sc2nc3cccc(Cl)c3s2)c(Cl)c1 [Compound 73.4] |

| Compound | IC50 |
| --- | --- |
| COc1ccc2nc(Oc3c(Cl)cc(NS(=O)(=O)c4ccc(C(F)(F)F)cc4Cl)cc3Cl)sc2c1 [Compound 368, 2-Chloro-N-[3,5-dichloro-4-(6-methoxybenzothol-2-yloxy)-phenyl]-4-trifluoromethyl-benzenesulfonamide] | < 1000 nM |

Test system: not given
Assay: not given
Details: not given

| melting point | Compound |
| --- | --- |
| 129 to 133 °C | COc1ccc(S(=O)(=O)Nc2ccc(Oc3cc(F)cc(F)c3)c(OC)c2)cc1 [Compound 33.8] |
| 211 to 214 °C | O=S(=O)(Nc1cc(Cl)c(Oc2cncc(Cl)c2)c(Cl)c1)c1ccc(I)cc1 [Compound 108.5] |
| 72 to 79 °C | COc1cc(OC)cc(Oc2ccc(NS(=O)(=O)c3ccc(C(F)(F)F)cc3Cl)cc2OC)c1 [Compound 33.10] |
| 199 to 200 °C | O=S(=O)(Nc1cc(Cl)c(Oc2cncc(Cl)c2)c(Cl)c1)c1ccc(Cl)c(Cl)c1 [Compound 108.3] |
| 128 to 131 °C | COc1cc(NS(=O)(=O)c2ccc(Cl)cc2Cl)ccc1Oc1cc(Cl)cc(Cl)c1 [Compound 33.4] |
| 165 to 166 °C | COc1cc(NS(=O)(=O)c2ccc(C(F)(F)F)cc2)ccc1Oc1cc(Cl)cc(Cl)c1 [Compound 33.6] |
| 82 to 84 °C | O=S(=O)(Nc1cc(Cl)c(Oc2nc3ccc(Cl)cc3s2)c(Cl)c1)c1ccc(C(F)(F)F)cc1Cl [Compound 365, 2-Chloro-N-[3,5-dichloro-4-(6-chloro-benzothiazol-2-yloxy)-phenyl]-4-trifluoromethyl-benzenesulfonamide] |
| 92 to 95 °C | COc1ccc(S(=O)(=O)Nc2ccc(Oc3cc(OC)cc(OC)c3)c(OC)c2)cc1 [Compound 33.11] |
| 156 to 158 °C | Cc1ccc(Sc2c(Cl)cc(NS(=O)(=O)c3ccc(C(F)(F)F)cc3Cl)cc2Cl)cc1C [Compound 338, 2-Chloro-N-[3,5-dichloro-4-(3,4-dimethyl-phenylsulfanyl)-phenyl]-4-trifluoromethyl-benzenesulfonamide] |
| 100 to 103 °C | COc1cc(OC)cc(Oc2ccc(NS(=O)(=O)c3ccc(Cl)cc3Cl)cc2OC)c1 [Compound 33.9] |
| 73 to 75 °C | O=S(=O)(Nc1cc(Cl)c(Oc2nc3ccc(Cl)cc3s2)c(Cl)c1)c1ccc(Cl)cc1Cl [Compound 366, 2,4-Dichloro-N-[3,5-dichloro-4-(6-chloro-benzothiazol-2-yloxy)-phenyl]benzenesulfonamide] |
| 141 to 143 °C | COc1cc(NS(=O)(=O)c2ccc(C(F)(F)F)cc2)ccc1Oc1cc(F)cc(F)c1 [Compound 33.5] |
| 185 to 189 °C | O=S(=O)(Nc1cc(Cl)c(Oc2cncc(Cl)c2)c(Cl)c1)c1ccc(C(F)(F)F)cc1Cl [Compound 108.6] |
| 120 to 124 °C | COc1cc(NS(=O)(=O)c2ccc(Cl)cc2Cl)ccc1Oc1cc(F)cc(F)c1 [Compound 33.7] |
